Experimental data published in doi:10.1101/2024.10.18.618978v3 (biorxiv, 2026).

Legend:
SpeG [1] = molecular target: T1, SpeG (Staphylococcus aureus, UniProt A0A0H2XGJ0); assay: thermal shift assay; assay type: binding; conditions: 1.6 μM SpeG, 3-fold dilution series of compound; Tm decreased
T1 sequence (A0A0H2XGJ0 1-165): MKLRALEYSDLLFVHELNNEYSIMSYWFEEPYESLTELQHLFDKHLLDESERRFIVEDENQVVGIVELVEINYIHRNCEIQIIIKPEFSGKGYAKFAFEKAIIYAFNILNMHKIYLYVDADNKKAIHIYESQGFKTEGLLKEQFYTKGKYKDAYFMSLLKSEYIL

SAT1 = SAT1 (Homo sapiens, UniProt P21673); assay: colorimetric DTNB SSAT assay; assay type: biochemical
SpeG [2] = molecular target: T1, SpeG; assay: colorimetric DTNB SSAT assay; assay type: biochemical

SAT1, sequence (P21673 whole entry): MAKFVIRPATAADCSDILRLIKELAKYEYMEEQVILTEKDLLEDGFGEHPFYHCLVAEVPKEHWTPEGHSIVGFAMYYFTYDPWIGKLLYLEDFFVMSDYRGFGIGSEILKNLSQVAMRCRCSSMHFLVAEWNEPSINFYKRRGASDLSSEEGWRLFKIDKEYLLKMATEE

Tm (SpeG [1]) | Ki (SAT1) [µM] | Ki (SpeG [2]) [µM] | Structure (SMILES)
OES2-0017 titration decreased SpeG Tm | – | – | CCCCCCCCCCCCNCCCN [OES2-0017]
– | 228 ± 49.7 | – | CCCCCCCCNCCCN [OES2-0045]
– | 160 ± 50.4 | 160 ± 38.3 | CCCCCCCCCCCCN [OES2-0052]
– | 743 ± 250 | 853 ± 238 | CCCCCCCCCCN [OES2-0077]
– | – | 1270 ± 263 | CCCCCCCCNCCN [OES2-0085]
– | – | 1200 ± 425 | CCCCCCCCCCNCCN [OES2-0086]
